Results: ChEMBL document CHEMBL1201862, “PubChem BioAssay data set” (2004)
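Growth conditions: 96-well plates. Treatment: test compound, 48 hours, 5 concentrations. Analysis: linear interpolation between bracketing concentrations; unreached endpoints set to highest concentration. Here, GI50 denotes the concentration required for 50% inhibition of growth.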 Active and inactive are the calls of the source. Cut-off read from the data, not from the text of the source: active = GI50 up to about 1.1 µM and inactive = higher.

How the values were obtained:
Assay in all cases: growth of human tumour cells (NCI), 48 h
A549 = test system: A549
COLO 205 = test system: COLO 205
HCC 2998 = test system: HCC 2998
HL-60 = test system: HL-60
Hs-578T = test system: Hs-578T
K562 = test system: K562
M14 = test system: M14
MDA-MB-231 = test system: MDA-MB-231
MDA-N = test system: MDA-N
Malme-3M = test system: Malme-3M
OVCAR-4 = test system: OVCAR-4
OVCAR-8 = test system: OVCAR-8
RXF 393 = test system: RXF 393
SK-MEL-28 = test system: SK-MEL-28
SK-OV-3 = test system: SK-OV-3
SN12C = test system: SN12C
SNB-19 = test system: SNB-19
SR = test system: SR
TK-10 = test system: TK-10
UACC-62 = test system: UACC-62

SMILES	GI50 (A549)	GI50 (COLO 205)	GI50 (HCC 2998)	GI50 (HL-60)	GI50 (Hs-578T)	GI50 (K562)	GI50 (M14)	GI50 (MDA-MB-231)	GI50 (MDA-N)	GI50 (Malme-3M)	GI50 (OVCAR-4)	GI50 (OVCAR-8)	GI50 (RXF 393)	GI50 (SK-MEL-28)	GI50 (SK-OV-3)	GI50 (SN12C)	GI50 (SNB-19)	GI50 (SR)	GI50 (TK-10)	GI50 (UACC-62)
O=C(c1cc2c(c3ccccc13)NC1(CCCCC1)N=C2C(F)(F)F)C(F)(F)F	4.35 µM (inactive)	5.57 µM (inactive)	2.29 µM (inactive)	2.9 µM (inactive)	6.32 µM (inactive)	4.3 µM (inactive)	6.17 µM (inactive)	3.14 µM (inactive)	3.72 µM (inactive)	5.27 µM (inactive)	3.73 µM (inactive)	4.23 µM (inactive)	3.66 µM (inactive)	9.1 µM (inactive)	5.61 µM (inactive)	3.66 µM (inactive)	5.4 µM (inactive)	3.6 µM (inactive)	4.01 µM (inactive)	3.78 µM (inactive)
COc1c(OC)c(OC)c2c(=O)cc(-c3ccc(OC(C)C)cc3)oc2c1OC	24.2 µM (inactive)	21.4 µM (inactive)	28.4 µM (inactive)	2.07 µM (inactive)	23.1 µM (inactive)	5.25 µM (inactive)	19.1 µM (inactive)	29.3 µM (inactive)	31.8 µM (inactive)	29.4 µM (inactive)	16.5 µM (inactive)	14.7 µM (inactive)	> 33.5 µM (inactive)	38.4 µM (inactive)	> 35.7 µM (inactive)	> 38.9 µM (inactive)	> 38.9 µM (inactive)	0.369 µM (active)	> 38.6 µM (inactive)	15.8 µM (inactive)
